Measured values as given in patent publication US20260217709A1, “2-OXOQUINAZOLINE DERIVATIVES AS METHIONINE ADENOSYLTRANSFERASE 2A INHIBITORS” (IDEAYA BIOSCIENCES, INC., priority 2018, published 2026).
Each block holds one compound with its values, some of them ahead of it.

Columns and labels:
hMAT2A [1] = molecular target: T1, hMAT2A (Homo sapiens, UniProt P31153); test: Phosphate Sensor Fluorescence Assay (MAT2A enzyme inhibition); type: biochemical; design: Human MAT2A: Cepter, amino acids 1-395; purchased Cepter clone ID 329, lot 00023-123; clone ID 334, lot 00023-148; settings: L-methionine 500 uM, ATP 500 uM, 1 hour room temperature
T1 sequence (P31153 whole entry, the tested form may be a part): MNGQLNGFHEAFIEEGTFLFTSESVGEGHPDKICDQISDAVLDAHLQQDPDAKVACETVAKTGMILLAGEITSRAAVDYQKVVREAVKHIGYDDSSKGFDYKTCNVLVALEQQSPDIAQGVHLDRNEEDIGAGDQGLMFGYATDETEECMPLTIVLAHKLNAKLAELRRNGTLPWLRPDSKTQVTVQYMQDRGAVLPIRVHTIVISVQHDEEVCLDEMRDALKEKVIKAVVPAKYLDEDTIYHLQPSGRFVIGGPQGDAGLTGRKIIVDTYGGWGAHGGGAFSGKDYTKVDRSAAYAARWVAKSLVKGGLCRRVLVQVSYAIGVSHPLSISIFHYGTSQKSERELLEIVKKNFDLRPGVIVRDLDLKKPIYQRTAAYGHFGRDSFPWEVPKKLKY
Description: (§1) The ability of the compound of present disclosure to inhibit MAT2A enzyme was determined using the Malachite Green or Phosphate Sensor Fluorescence Assay described below.
B. Phosphate Sensor Fluorescence Assay
MAT2A enzyme is incubated with a test compound in DMSO or DMSO and its substrates (L-methionine and ATP) in a microtiter plate. The enzymatic reaction is stopped by the addition of Working Phosphate Sensor Mixture. The plate is analyzed for fluorescence at 450 nm.
Test compounds or DMSO were added to the appropriate well suing D300e digital dispenser. 5 μl/well of Assay Buffer was added to the wells corresponding to the negative control and 5 μl/well of MAT2A was added to all the wells except for those corresponding to the negative control. After incubating the plate at room temperature for 15 minutes, 5 μl/well of the 1 mM L-methionine/1 mM ATP mixture was added to all wells. The plate was centrifuged at 1000 rpm for 1 minute and then incubated at room temperature for 1 hour. 5 μl of the Working Phosphate Sensor Mixture was added to all wells and the plate was centrifuged at 1000 rpm for 1 minute. The plate was read for fluorescence at 450 nm after exciting at 430 nm.
Percent inhibition was calculated in Chemical and Biological Information System (CBIS), (ChemInnovation Software Inc.). […]

hMAT2A [2] = molecular target: T1, hMAT2A; test: Malachite Green Assay (MAT2A enzyme inhibition); type: biochemical; design: amino acids 1-395; purchased Cepter; settings: hMAT2A 50 nM, substrates 500 uM each, reaction time 1 hour, 23° C.
Description: as §1
L-methionine Substrate: Alfa Aesar catalog #J61904
ATP Substrate: Alfa Aesar cat #J60336
Malachite Green Detection Reagent: Millipore Sigma catalog #MAK307-1KT
Assay buffer: 50 mM Tris, pH 7.5/50 mM KCl/10 mM MgCl2/0.01% Brij-35/1 mM DTT/0.1% BGG
The plate was centrifuged at 1000 rpm for 1 minute and then incubated at room temperature for 1 hour. 5 μL of malachite green detection reagent was added to all the test wells and the plate was centrifuged at 1000 rpm for 1 minute and then incubated at room temperature for 30 minutes. The plate was read for absorbance at 620 nm on a plate reader (e.g., Infinite M1000).

IC50 (hMAT2A [1]; class symbols): < 0.2 µM
Compound: 1[2-(difluoromethoxy)(3-pyridyl)]-7- cyclopropyl-4-[(cyclopropylmethyl)- amino]hydroquinazolin-2-one [Example 416]

IC50 (hMAT2A [1]; numeric bound): > 10 µM
Compound: 7-chloro-1-(2-fluoro-3- metho xyphenyl)-4- hydroxyhydroquinazolin-2-one [Example 332]

IC50 (hMAT2A [2]): 1 to 10 µM
Compound: Nc1nc(=O)n(-c2ccccc2)c2cc(Cl)ccc12 [Example 59, 4-amino-7-chloro-1-phenylquinazolin-2(1H)-one]
